Measurements: patent US20260226060A1, “SALTS AND CRYSTALLINE FORMS OF COMPOUND A, METHODS OF PREPARATION, AND USES THEREOF” (SHENZHEN NEWDEL BIOTECH CO., LTD., priority 2023, published 2026)

Legend:
Assay type in all cases: physicochemical
[1] = Dynamic vapor sorption (DVS) hygroscopicity
Protocol: The water vapor sorption/desorption data of the samples were collected on a dynamic vapor sorption instrument (proUmid GmbH & Co. KG, Germany). Approximately 50-70 mg of sample was placed in a sample pan previously tared and the weight of the sample was measured accurately.

[2] = Solid state stability at 60° C. (closed) and 40° C./75% RH (open), XRPD and HPLC purity
Protocol: (closed) and 40° C./75 RH (open) for 14 days, XRPD analysis and purity analysis were performed at various points of time, and solid-state stability was evaluated.
(§1) HPLC analysis was performed by using an Agilent HPLC 1260 series instrument and the HPLC methods used for solubility and stability determinations were shown in Tables 33 and 34, respectively.

[3] = Short-term physical stability of anhydrous crystal forms (40° C./75% RH, open, 1 day; XRPD)
Text: In addition to the mesylate crystalline form I, the other anhydrous crystalline forms were stable under high humidity conditions.

[4] = Solubility analysis in biological solvents (SGF, FaSSIF, FeSSIF) and water, with pH and XRPD of residual solid; settings: for Solubility: 37° C.
Protocol: as §1

[5] = IC analysis of residual solid of phosphate crystalline form I (PO4 content, dissociation)
Protocol: IC analysis of the salts was performed by using a Thermo ICS-6000 instrument.

crystalline form after DVS analysis (XRPD) [1]: remained unchanged
hygroscopicity (DVS) [1]: slightly hygroscopic
DVS The weight gains by vapor sorption % ([1]; 80% RH): 1.3%
DVS The weight gains by vapor sorption % ([1]; 90% RH): 1.6%
DVS The weight gains by vapor sorption % ([1]; 90% RH, listed as phosphate crystalline form I): ~1.6%
Purity in stability evaluation ([2]; 0 d): 98.78 Area %
Solid state stability-14 days ([2]; 60° C./Closed and 40° C./75% RH (Open), 14 days): physically and chemically stable
Purity in stability evaluation ([2]; 7 d-40° C./75% RH): 98.78 Area %
XRPD in stability evaluation ([2]; 7 d-40° C./75% RH): unchanged
Purity in stability evaluation ([2]; 7 d-60° C./capped): 98.78 Area %
XRPD in stability evaluation ([2]; 7 d-60° C./capped): unchanged
Purity in stability evaluation ([2]; 14 d-40° C./75% RH): 98.78 Area %
XRPD in stability evaluation ([2]; 14 d-40° C./75% RH): unchanged
Purity in stability evaluation ([2]; 14 d-60° C./capped): 98.78 Area %
XRPD in stability evaluation ([2]; 14 d-60° C./capped): unchanged
XPRD Results after short-term physical stability [3]: unchanged
pH in solubility analysis ([4]; FaSSIF (medium pH 6.5), 0.5 h): 5.7
pH in solubility analysis ([4]; FaSSIF (medium pH 6.5), 2 h): 5.5
pH in solubility analysis ([4]; FaSSIF (medium pH 6.5), 24 h): 5.5
solubility at 24 h ([4]; FaSSIF, 37 °C, pH 6.5, fassif, thermodynamic from solid, 24 h, target 5 mg/mL): 22 µg/mL
XRPD of residual solid in solubility analysis ([4]; FaSSIF, 0.5 h): Form 1
Solubility ([4]; FaSSIF, 0.5 h, target 5 mg/mL): 57 µg/mL
Solubility ([4]; FaSSIF, 0.5 h, target 5 mg/mL, listed as phosphate crystalline form I): 57 µg/mL
XRPD of residual solid in solubility analysis ([4]; FaSSIF, 0.5 h, listed as phosphate crystalline form I): Newform 1
Solubility ([4]; FaSSIF, 2 h, target 5 mg/mL): 48 µg/mL
Solubility ([4]; FaSSIF, 2 h, target 5 mg/mL, listed as phosphate crystalline form I): 48 µg/mL
XRPD of residual solid in solubility analysis ([4]; FaSSIF, 24 h): Form 2
XRPD of residual solid in solubility analysis ([4]; FaSSIF, 24 h, listed as phosphate crystalline form I): new form 2
pH in solubility analysis ([4]; FeSSIF (medium pH 5.0), 0.5 h): 4.9
pH in solubility analysis ([4]; FeSSIF (medium pH 5.0), 2 h): 4.9
pH in solubility analysis ([4]; FeSSIF (medium pH 5.0), 24 h): 5.0
XRPD of residual solid in solubility analysis ([4]; FeSSIF, 0.5 h): Form 1
Solubility ([4]; FeSSIF, 0.5 h, target 5 mg/mL): 1029 µg/mL
Solubility ([4]; FeSSIF, 0.5 h, target 5 mg/mL, listed as phosphate crystalline form I): 1029 µg/mL
XRPD of residual solid in solubility analysis ([4]; FeSSIF, 0.5 h, listed as phosphate crystalline form I): Newform 1
Solubility ([4]; FeSSIF, 2 h, target 5 mg/mL): 1175 µg/mL
Solubility ([4]; FeSSIF, 2 h, target 5 mg/mL, listed as phosphate crystalline form I): 1175 µg/mL
XRPD of residual solid in solubility analysis ([4]; FeSSIF, 24 h): Form 1
Solubility ([4]; FeSSIF, 24 h, target 5 mg/mL): 1948 µg/mL
Solubility ([4]; FeSSIF, 24 h, target 5 mg/mL, listed as phosphate crystalline form I): 1948 µg/mL
pH in solubility analysis ([4]; SGF (medium pH 1.2), 0.5 h): 1.2
pH in solubility analysis ([4]; SGF (medium pH 1.2), 2 h): 1.4
pH in solubility analysis ([4]; SGF (medium pH 1.2), 24 h): 1.2
Solubility ([4]; SGF, 0.5 h, target 5 mg/mL): <LOD
Solubility ([4]; SGF, 0.5 h, target 5 mg/mL, listed as phosphate crystalline form I): <LOD/<LOD/
Solubility ([4]; SGF, 2 h, target 5 mg/mL): <LOD
Solubility ([4]; SGF, 2 h, target 5 mg/mL, listed as phosphate crystalline form I): <LOD/<LOD/
XRPD of residual solid in solubility analysis ([4]; SGF, 24 h): amorphous
Solubility ([4]; SGF, 24 h, target 5 mg/mL): <LOD
XRPD of residual solid in solubility analysis ([4]; SGF, after 2 h): amorphous
pH in solubility analysis ([4]; water (medium pH 6.6), 0.5 h): 2.8
pH in solubility analysis ([4]; water (medium pH 6.6), 2 h): 2.7
pH in solubility analysis ([4]; water (medium pH 6.6), 24 h): 2.6
Solubility ([4]; water, 0.5 h, target 5 mg/mL): <LOD
Solubility ([4]; water, 0.5 h, target 5 mg/mL, listed as phosphate crystalline form I): <LOD/<LOD/
Solubility ([4]; water, 2 h, target 5 mg/mL): <LOD
Solubility ([4]; water, 2 h, target 5 mg/mL, listed as phosphate crystalline form I): <LOD/<LOD/
Solubility ([4]; water, 24 h, target 5 mg/mL): <LOD
XRPD pattern of the residual solid in water ([4]; water, time not stated): an additional peak at 160 (20)
dissociation of salt in solubility media (IC of residual solids) ([5]; FaSSIF and FeSSIF): dissociated to free base
Dissociation degree ([5]; FaSSIF, 0.5 h): 91%
PO4^3− in residual solid ([5]; FaSSIF, 0.5 h): 0.1 eq.
XPRD Results Dry sample of residual solid ([5]; FaSSIF, 0.5 h): Amorphous
XPRD Results Wet sample of residual solid ([5]; FaSSIF, 0.5 h): Form 1
Dissociation degree ([5]; FaSSIF, 2 h): 97%
PO4^3− in residual solid ([5]; FaSSIF, 2 h): 0.03 eq.
XPRD Results Dry sample of residual solid ([5]; FaSSIF, 2 h): Amorphous
XPRD Results Wet sample of residual solid ([5]; FaSSIF, 2 h): Form 1
Dissociation degree ([5]; FaSSIF, 24 h): >99%
PO4^3− in residual solid ([5]; FaSSIF, 24 h): <0.006 eq.
XPRD Results Dry sample of residual solid ([5]; FaSSIF, 24 h): Form 3
XPRD Results Wet sample of residual solid ([5]; FaSSIF, 24 h): Form 2
Dissociation degree ([5]; FeSSIF, 0.5 h): >99%
PO4^3− in residual solid ([5]; FeSSIF, 0.5 h): <0.006 eq.
XPRD Results Dry sample of residual solid ([5]; FeSSIF, 0.5 h): Amorphous
XPRD Results Wet sample of residual solid ([5]; FeSSIF, 0.5 h): Form 1
Dissociation degree ([5]; FeSSIF, 24 h): 100%
PO4^3− in residual solid ([5]; FeSSIF, 24 h): 0 eq.
XPRD Results Dry sample of residual solid ([5]; FeSSIF, 24 h): Amorphous
XPRD Results Wet sample of residual solid ([5]; FeSSIF, 24 h): Form 1
SMILES: Cc1c(C#Cc2cnc3ccc(N4CCC(O)CC4)nn23)cccc1C(=O)Nc1cc(Cl)cc(C(F)(F)F)c1 [Phosphate crystalline form I]
